Source: patent US9211310B2, “Use of a Chinese medicine composition in preparing medicaments for treating secondary prevention of myocardial infarction” (TASLY PHARMACEUTICAL GROUP CO., LTD, priority 2010, dated 2015)

System: patients after acute myocardial infarction
Assay: Life quality, Seattle Angina Questionnaire (SAQ), same clinical trial
Type: in vivo, human
Settings: PP
Text: 3508 patients who were in accordance with the diagnostic standards of AMI for 28 days to 2 years and differentiated as Qi deficiency and blood stagnation syndrome by TCM were studied. 0.5 g Chinese medicine composition prepared by the method of EXAMPLE 1 (Coded as QSYQ) was administrated half an hour after meal, 3 times per day.
There were 19 questions in the Seattle angina questionnaire (SAQ), including 5 parts: physical limitation (PL), anginal stability (AS), anginal frequency (AF), treatment satisfaction (TS) and disease perception (DP). After being given necessary explanation by doctors, the questions were answered independently by patients.
They included the overall survival time, angina pectoris score, TCM symptom score and life quality score, where angina pectoris score, TCM symptom score and life quality score were evaluated at randomization, in 1st, 3rd, 6th, 9th, 12th month after treatment and 18th month after follow-up.
All evaluation results of SAQ were described during the period of observation, and Wilcoxon rank sum test was used for inter-group comparison.
The evaluation results in the SAQ were depicted in different observations, and inter-group comparison was tested by Wilcoxon Rank-sum test.

CC(=O)Oc1ccccc1C(=O)O [Control group, aspirine]
SAQ 5th question, <1 time per week: number of patients (9 months after treatment): 412
SAQ 5th question, No onset: % of patients (9 months after treatment): (4.66%)
SAQ 5th question, No onset: number of patients (9 months after treatment): 67
SAQ 5th question, ≧3 times per week: % of patients (9 months after treatment): (29.49%)
SAQ 5th question, ≧3 times per week: number of patients (9 months after treatment): 424
SAQ 5th question, ≧4 times per day: % of patients (9 months after treatment): (0.49%)
SAQ 5th question, ≧4 times per day: number of patients (9 months after treatment): 7
SAQ 6th question, Dissatisfied: % of patients (9 months after treatment): (0.07%)
SAQ 6th question, Dissatisfied: number of patients (9 months after treatment): 1
SAQ 6th question, Highly satisfied: % of patients (9 months after treatment): (24.93%)
SAQ 6th question, Highly satisfied: number of patients (9 months after treatment): 359
SAQ 6th question, Mostly dissatisfied: % of patients (9 months after treatment): (1.53%)
SAQ 6th question, Mostly dissatisfied: number of patients (9 months after treatment): 22
SAQ 6th question, Mostly satisfied: % of patients (9 months after treatment): (59.38%)
SAQ 6th question, Mostly satisfied: number of patients (9 months after treatment): 855
SAQ 6th question, Partly satisfied: % of patients (9 months after treatment): (14.10%)
SAQ 6th question, Partly satisfied: number of patients (9 months after treatment): 203
SAQ 7th question, Dissatisfied: % of patients (9 months after treatment): (0.07%)
SAQ 7th question, Dissatisfied: number of patients (9 months after treatment): 1
SAQ 7th question, Highly satisfied: % of patients (9 months after treatment): (28.44%)
SAQ 7th question, Highly satisfied: number of patients (9 months after treatment): 409
SAQ 7th question, Most dissatisfied: % of patients (9 months after treatment): (0.83%)
SAQ 7th question, Most dissatisfied: number of patients (9 months after treatment): 12
SAQ 7th question, Mostly satisfied: % of patients (9 months after treatment): (59.74%)
SAQ 7th question, Mostly satisfied: number of patients (9 months after treatment): 859
SAQ 7th question, Partly satisfied: % of patients (9 months after treatment): (10.92%)
SAQ 7th question, Partly satisfied: number of patients (9 months after treatment): 157
SAQ Question 1-1 Mildly limited, number of patients (9 months after treatment): 18
SAQ Question 1-1 Mildly limited, percent of patients (9 months after treatment): (1.25%)
SAQ Question 1-1 Moderately limited, number of patients (9 months after treatment): 3
SAQ Question 1-1 Moderately limited, percent of patients (9 months after treatment): (0.21%)
SAQ Question 1-1 Not limited, number of patients (9 months after treatment): 1366
SAQ Question 1-1 Not limited, percent of patients (9 months after treatment): (95.06%)
SAQ Question 1-1 Other reasons, number of patients (9 months after treatment): 3
SAQ Question 1-1 Other reasons, percent of patients (9 months after treatment): (0.21%)
SAQ Question 1-1 Severely limited, number of patients (9 months after treatment): 0
SAQ Question 1-1 Severely limited, percent of patients (9 months after treatment): (0.00%)
SAQ Question 1-1 Slightly limited, number of patients (9 months after treatment): 47
SAQ Question 1-1 Slightly limited, percent of patients (9 months after treatment): (3.27%)
SAQ Question 1-2 Mildly limited, number of patients (9 months after treatment): 20
SAQ Question 1-2 Mildly limited, percent of patients (9 months after treatment): (1.39%)
SAQ Question 1-2 Moderately limited, number of patients (9 months after treatment): 4
SAQ Question 1-2 Moderately limited, percent of patients (9 months after treatment): (0.28%)
SAQ Question 1-2 Not limited, number of patients (9 months after treatment): 1358
SAQ Question 1-2 Not limited, percent of patients (9 months after treatment): (94.50%)
SAQ Question 1-2 Other reasons, number of patients (9 months after treatment): 5
SAQ Question 1-2 Other reasons, percent of patients (9 months after treatment): (0.35%)
SAQ Question 1-2 Severely limited, number of patients (9 months after treatment): 0
SAQ Question 1-2 Severely limited, percent of patients (9 months after treatment): (0.00%)
SAQ Question 1-2 Slightly limited, number of patients (9 months after treatment): 50
SAQ Question 1-2 Slightly limited, percent of patients (9 months after treatment): (3.48%)
SAQ Question 1-6: Mildly limited, patients (%) (9 months after treatment): (14.59%)
SAQ Question 1-6: Moderately limited, patients (%) (9 months after treatment): (11.31%)
SAQ Question 1-6: Not limited, patients (%) (9 months after treatment): (38.48%)
SAQ Question 1-6: Other reasons, patients (%) (9 months after treatment): (0.91%)
SAQ Question 1-6: Severely limited, patients (%) (9 months after treatment): (2.30%)
SAQ Question 1-6: Slightly limited, patients (%) (9 months after treatment): (32.40%)
SAQ Question 1-7: Mildly limited, patients (%) (9 months after treatment): (21.63%)
SAQ Question 1-7: Moderately limited, patients (%) (9 months after treatment): (10.88%)
SAQ Question 1-7: Not limited, patients (%) (9 months after treatment): (18.30%)
SAQ Question 1-7: Other reasons, patients (%) (9 months after treatment): (3.25%)
SAQ Question 1-7: Severely limited, patients (%) (9 months after treatment): (13.71%)
SAQ Question 1-7: Slightly limited, patients (%) (9 months after treatment): (32.23%)
SAQ Question 1-8: Mildly limited, patients (%) (9 months after treatment): (25.11%)
SAQ Question 1-8: Moderately limited, patients (%) (9 months after treatment): (14.11%)
SAQ Question 1-8: Not limited, patients (%) (9 months after treatment): (12.34%)
SAQ Question 1-8: Other limited, patients (%) (9 months after treatment): (3.76%)
SAQ Question 1-8: Severely limited, patients (%) (9 months after treatment): (17.23%)
SAQ Question 1-8: Slightly limited, patients (%) (9 months after treatment): (27.45%)
8th question: Dissatisfied, patients (%) (12 months after treatment): (0.00%)
8th question: Highly satisfied, patients (%) (12 months after treatment): (26.80%)
8th question: Mostly dissatisfied, patients (%) (12 months after treatment): (1.26%)
8th question: Mostly satisfied, patients (%) (12 months after treatment): (61.16%)
8th question: Partly satisfied, patients (%) (12 months after treatment): (10.78%)
9th question: Few, patients (%) (12 months after treatment): (41.42%)
9th question: Mild, patients (%) (12 months after treatment): (29.64%)
9th question: Moderate, patients (%) (12 months after treatment): (4.48%)
